For orientation: IC50 means the concentration that gives 50% inhibition. Low values mean greater potency, high ones weaker potency.

Common to all, as to format: biochemical
In one assay the target is T1, TRKB (Homo sapiens, UniProt Q16620).
T1 construct: purchased SignalChem N17-11G
The assay can be described thus: Determination of inhibitory activity against TRKB kinase (ADP-Glo Kinase Assay). The conditions noted are these: ATP 20 μM, Poly (4:1 Glu, Tyr) Peptide 0.03 mg/ml. How it is done: (§1) Assay: Determination of Inhibitory Activity Against TRKA/B/C Kinases
(§2) 1× volume of 5× kinase reaction buffer and 4× volume of water; 5 mM MgCl2; and 1 mM DTT.
(§3) • 1). Gradiently diluting a compound 4-fold in a dilution plate with DMSO, with a starting compound concentration of 1000 nM. • 2). Diluting the compound 50-fold into 1× kinase reaction buffer and shaking it on a shaker for 20 minutes. • 3). Formulating 2× kinase with 1× of enzyme reaction buffer. • 4). Adding 2 μl kinase (formulated in step 3) to each well of the reaction plate. • 5). Adding 1 μl of the compound diluted in buffer to each well, sealing the plate with a sealing membrane and centrifuging the plate at 1000 g for 30 seconds and leaving it at room temperature for 10 minutes. • 6). Formulating 4×ATP & sub mixture with 1× enzyme reaction buffer and adding 1 μl of 4×ATP & sub mixture to the reaction plate. • 7). Sealing the plate with a sealing membrane and centrifuging the plate at 1000 g for 30 seconds and allowing it to react at room temperature for 60 minutes. • 8). Transferring 4 μl of ADP-Glo to 384 reaction plate and centrifuging the plate at 1000 rpm/min for 1 min, and then incubating it at 25° C. for 40 min. • 9). Transferring 8 μl of Detection solution to 384 reaction plate and centrifuging the plate at 1000 rpm/min for 1 min and incubating it at 25° C. for 40 min. • 10) Reading the RLU (Relative luminescence unit) signal using a Biotek multifunctional plate reader. The signal intensity was used to characterize the activity degree of kinase.
(§4) The IC50 (half inhibition concentration) of a compound was obtained using the following non-linear fitting equation, wherein data analysis was performed using Graphpad 6.0 software.
(§5) Y=Bottom+(Top−Bottom)/(1+10^((Log IC50−X)*Hill Slope)) • X: log value of compound concentration; and Y: inhibition rate (% inhibition)
(§6) Data were exported from Biotek and analyzed manually. The ratios were converted to inhibition rates and IC50 was calculated by Prism GraphPad 6.0 from the inhibition rates. IC50 was calculated again by the ratios to verify accuracy of the results.
Background: ADP-Glo first removes unused ATP, then detects ADP through luciferase.

A further assay has as its target T2, TRKC (Homo sapiens, UniProt Q16288).
T2 construct: purchased Carna 08-196
The assay can be described thus: Determination of inhibitory activity against TRKC kinase (ADP-Glo Kinase Assay). To be noted: ATP 5 μM, Poly (4:1 Glu, Tyr) Peptide 0.03 mg/ml. How it is done: as §1, §2, §3, §4, §5, §6

For another assay, the target named is T3, TRKA (Homo sapiens, UniProt P04629).
T3 construct: purchased Carna 08-186
T3 sequence (P04629 33-796): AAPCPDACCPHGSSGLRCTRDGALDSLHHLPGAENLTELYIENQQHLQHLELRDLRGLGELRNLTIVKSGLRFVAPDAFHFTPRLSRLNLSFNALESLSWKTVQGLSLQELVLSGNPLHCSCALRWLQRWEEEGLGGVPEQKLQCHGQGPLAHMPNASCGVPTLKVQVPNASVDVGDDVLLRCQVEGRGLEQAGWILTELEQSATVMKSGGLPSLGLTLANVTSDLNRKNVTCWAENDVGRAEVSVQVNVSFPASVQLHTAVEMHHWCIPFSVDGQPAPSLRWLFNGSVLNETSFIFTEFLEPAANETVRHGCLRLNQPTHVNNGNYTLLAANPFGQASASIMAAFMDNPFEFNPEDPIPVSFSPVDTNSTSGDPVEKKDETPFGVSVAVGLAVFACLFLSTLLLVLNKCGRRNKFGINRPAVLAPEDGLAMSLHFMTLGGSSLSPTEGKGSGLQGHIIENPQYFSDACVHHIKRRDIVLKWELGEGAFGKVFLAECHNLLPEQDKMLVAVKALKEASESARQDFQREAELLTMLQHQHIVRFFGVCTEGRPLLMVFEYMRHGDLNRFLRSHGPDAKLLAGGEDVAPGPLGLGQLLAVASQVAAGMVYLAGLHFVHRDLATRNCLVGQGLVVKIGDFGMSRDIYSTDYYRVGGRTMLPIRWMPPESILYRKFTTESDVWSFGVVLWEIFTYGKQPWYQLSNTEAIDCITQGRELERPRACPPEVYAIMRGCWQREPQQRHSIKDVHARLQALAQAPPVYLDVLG
As to the kind of experiment: Determination of inhibitory activity against TRKA kinase (ADP-Glo Kinase Assay). The conditions noted are these: ATP 5 μM, Poly (4:1 Glu, Tyr) Peptide 0.03 mg/ml. The protocol:
as §1, §2, §3, §4, §5, §6

T1 sequence (Q16620 32-822): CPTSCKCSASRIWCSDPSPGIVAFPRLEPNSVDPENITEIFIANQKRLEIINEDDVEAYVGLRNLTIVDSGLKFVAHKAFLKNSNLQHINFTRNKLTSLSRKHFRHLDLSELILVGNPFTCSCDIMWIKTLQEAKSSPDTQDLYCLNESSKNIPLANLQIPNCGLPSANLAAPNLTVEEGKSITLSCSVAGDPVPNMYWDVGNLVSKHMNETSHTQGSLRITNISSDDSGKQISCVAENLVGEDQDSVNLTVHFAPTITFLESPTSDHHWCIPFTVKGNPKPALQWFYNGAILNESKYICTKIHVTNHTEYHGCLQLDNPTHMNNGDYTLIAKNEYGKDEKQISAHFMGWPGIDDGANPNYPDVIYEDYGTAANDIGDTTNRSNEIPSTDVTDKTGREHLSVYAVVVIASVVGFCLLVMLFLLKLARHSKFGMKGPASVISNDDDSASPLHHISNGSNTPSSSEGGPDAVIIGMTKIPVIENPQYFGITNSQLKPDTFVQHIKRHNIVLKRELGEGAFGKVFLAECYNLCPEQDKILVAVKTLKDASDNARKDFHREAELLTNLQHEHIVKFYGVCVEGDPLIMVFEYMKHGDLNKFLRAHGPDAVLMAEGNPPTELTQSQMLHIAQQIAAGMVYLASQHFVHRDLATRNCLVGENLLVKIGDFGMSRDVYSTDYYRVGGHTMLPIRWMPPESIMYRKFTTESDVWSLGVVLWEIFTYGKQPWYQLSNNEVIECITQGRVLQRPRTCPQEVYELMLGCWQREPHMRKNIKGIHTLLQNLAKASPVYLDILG
T2 sequence (Q16288 32-839): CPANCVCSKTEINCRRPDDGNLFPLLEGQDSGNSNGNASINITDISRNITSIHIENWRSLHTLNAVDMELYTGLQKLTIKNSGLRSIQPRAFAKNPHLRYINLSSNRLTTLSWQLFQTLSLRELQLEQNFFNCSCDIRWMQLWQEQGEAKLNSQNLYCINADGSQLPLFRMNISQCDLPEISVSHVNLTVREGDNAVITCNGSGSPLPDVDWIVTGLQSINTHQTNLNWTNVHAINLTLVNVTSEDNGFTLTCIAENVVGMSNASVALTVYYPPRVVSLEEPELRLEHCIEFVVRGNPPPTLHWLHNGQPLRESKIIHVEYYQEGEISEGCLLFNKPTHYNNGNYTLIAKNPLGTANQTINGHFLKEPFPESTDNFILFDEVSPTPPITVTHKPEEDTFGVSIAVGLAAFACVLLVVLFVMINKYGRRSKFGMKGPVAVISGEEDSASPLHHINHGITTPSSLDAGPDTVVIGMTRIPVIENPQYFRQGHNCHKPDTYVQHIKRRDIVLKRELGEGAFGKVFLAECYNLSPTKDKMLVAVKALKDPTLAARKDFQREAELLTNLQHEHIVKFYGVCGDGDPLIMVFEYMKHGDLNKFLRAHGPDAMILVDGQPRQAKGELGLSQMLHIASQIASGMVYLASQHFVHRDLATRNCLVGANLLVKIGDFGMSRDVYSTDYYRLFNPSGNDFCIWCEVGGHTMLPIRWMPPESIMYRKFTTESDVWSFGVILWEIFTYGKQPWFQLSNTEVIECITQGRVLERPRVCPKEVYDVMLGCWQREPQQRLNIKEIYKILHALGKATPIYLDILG

As to `CC(Oc1ccc2[nH]nc(-c3nc4c([nH]3)CN(CC3CCN(C(C)C)CC3)C4)c2c1)c1cc(F)cc(F)c1` (stereo not drawn) [Example 22], the results for the concentration for half-maximal inhibition (IC50) against TRKB, on TRKC and at TRKA were 0.82 nM, 0.51 nM and 0.47 nM, respectively.
In the same order, the values of `CC(Oc1ccc2[nH]nc(-c3nc4c([nH]3)CN(C(=O)OC3CN(C)C3)C4)c2c1)c1cc(F)cc(F)c1` (stereo not drawn) [Example 31, 1-Methylazetidin-3-yl 2-(5-(1-(3,5-difluorophenyl)ethoxy)-1H-indazol-3-yl)-4,6-dihydropyrrolo[3,4-d]imidazole-5(1H)-carboxylate] are 4.3 nM, 1.1 nM and 1.1 nM.
In the same order, the values of `CC(Oc1ccc2[nH]nc(-c3nc4c([nH]3)CN(CC3CCN(C)CC3)C4)c2c1)c1cc(F)cc(C#N)c1` (stereo not drawn) [Example 47] are 8.9 nM, 8.6 nM and 14.2 nM.
In the same order, the values of `CC(Oc1ccc2[nH]nc(-c3nc4c([nH]3)CN(C(=O)OC3CCN(C)C3)C4)c2c1)c1cc(F)cc(F)c1` (stereo not drawn) [Example 30, 1-Methylpyrrolidin-3-yl 2-(5-(1-(3,5-difluorophenyl)ethoxy)-1H-indazol-3-yl)-4,6-dihydropyrrolo[3,4-d]imidazole-5(1H)-carboxylate] are 2 nM, 1.2 nM and 0.94 nM.
For the compound `CC(Oc1ccc2[nH]nc(-c3nc4c([nH]3)CN(CCC3CCN(C)CC3)C4)c2c1)c1cc(F)cc(F)c1` (stereo not drawn) [Example 21, 5-(1-(3,5-Difluorophenyl)ethoxy)-3-(5-(2-(1-methylpiperidin-4-yl)ethyl)-1,4,5,6-tetrahydropyrrolo[3,4-d]imidazol-2-yl)-1H-indazole], the IC50 against TRKB came to 6.8 nM; against TRKC, 2.5 nM; against TRKA, 1.8 nM.
On the same counts, the results for `CC(Oc1ccc2[nH]nc(-c3nc4c([nH]3)CN(C(=O)N3CCN(C)CC3)C4)c2c1)c1cc(F)cc(F)c1` (stereo not drawn) [Example 29, (2-(5-(1-(3,5-Difluorophenyl)ethoxy)-1H-indazol-3-yl)-4,6-dihydropyrrolo[3,4-d]imidazol-5(1H)-yl)(4-methylpiperazin-1-yl)ketone] are 2.2 nM, 1.8 nM and 1.5 nM.
In the same order, the values of `CC(Oc1ccc2[nH]nc(-c3nc4c([nH]3)CN(CC3CCCNC3)C4)c2c1)c1cc(F)cc(F)c1` (stereo not drawn) [Example 24, 5-(1-(3,5-Difluorophenyl)ethoxy)-3-(5-(piperidin-3-ylmethyl)-1,4,5,6-tetrahydropyrrolo[3,4-d]imidazol-2-yl)-1H-indazole] are 5.3 nM, 2.2 nM and 1.5 nM.
As for `CC(Oc1ccc2[nH]nc(-c3nc4c([nH]3)CN(C3CCN(C)CC3)CC4)c2c1)c1cc(F)cc(F)c1` (stereo not drawn) [Example 8, 2-(5-(1-(3,5-difluorophenyl)ethoxy)-1H-indazol-3-yl)-5-(1-methylpiperidin-4-yl)-4,5,6,7-tetrahydro-3H-imidazo[4,5-c]pyridine], the concentration for half-maximal inhibition (IC50) stood at 2.8 nM on TRKB, 1.6 nM against TRKC and 0.7 nM on TRKA.
In the same order, the values of `CCN1CCC(CN2Cc3nc(-c4n[nH]c5ccc(OC(C)c6cc(F)cc(F)c6)cc45)[nH]c3C2)CC1` (stereo not drawn) [Example 17] are 4.2 nM, 1.5 nM and 0.66 nM.
In the same order, the values of `O=C(C1CC1)N1Cc2nc(-c3n[nH]c4ccc(Cc5cc(F)cc(F)c5)cc34)[nH]c2C1` [Example 13, Cyclopropyl(2-(5-(3,5-difluorobenzyl)-1H-indazol-3-yl)-4,6-dihydropyrrolo [3,4-d]imidazol-5(1H)-yl)ketone] are 4.4 nM, 9.2 nM and 6.9 nM.
On the same counts, the results for `CC(Oc1ccc2[nH]nc(-c3nc4c([nH]3)CN(C(=O)OCCN(C)C)C4)c2c1)c1cc(F)cc(F)c1` (stereo not drawn) [Example 6, 2-(Dimethylamino)ethyl 2-(5-(1-(3,5-difluorophenyl)ethoxy)-1H-indazol-3-yl)-4,6-dihydropyrrolo[3,4-d]imidazole-5(1H)-carboxylate] are 3.2 nM, 1.4 nM and 0.97 nM.
For the compound `CC(Oc1ccc2[nH]nc(-c3nc4c([nH]3)CN(C3CC(N(C)C)C3)C4)c2c1)c1cc(F)cc(F)c1` (stereo not drawn) [Example 44], the results for the concentration for half-maximal inhibition (IC50) at TRKB, against TRKC and against TRKA were 0.64 nM, 1.8 nM and 1.4 nM, respectively.
On the same counts, the results for `CC(=O)N1CCC(CN2Cc3nc(-c4n[nH]c5ccc(OC(C)c6cc(F)cc(F)c6)cc45)[nH]c3C2)CC1` (stereo not drawn) [Example 19, 1-(4-((2-(5-(1-(3,5-Difluorophenyl)ethoxy)-1H-indazol-3-yl)-4,6-dihydropyrrolo[3,4-d]imidazol-5(1H)-yl)methyl)piperidin-1-yl)ethan-1-one] are 4.8 nM, 4.1 nM and 1.2 nM.
As to `CCC(Oc1ccc2[nH]nc(-c3nc4c([nH]3)CN(CC3CCN(C)CC3)C4)c2c1)c1cc(F)cc(F)c1` (stereo not drawn) [Example 48, 5-(1-(3,5-Difluorophenyl)propoxy)-3-(5-((1-methylpiperidin-4-yl)methyl)-1,4,5,6-tetrahydropyrrolo[3,4-d]imidazol-2-yl)-1 H-indazole], the IC50 on TRKB is 4.2 nM; against TRKC, 6.1 nM; against TRKA, 4.5 nM.
For `CC(Oc1ccc2[nH]nc(-c3nc4c([nH]3)CN(CC3CCNCC3)C4)c2c1)c1cc(F)cc(F)c1` (stereo not drawn) [Example 16, 5-(1-(3,5-Difluorophenyl)ethoxy)-3-(5-(piperidin-4-ylmethyl)-1,4,5,6-tetrahydropyrrolo[3,4-d]imidazol-2-yl)-1H-indazole], the IC50 against TRKB amounted to 1.9 nM; against TRKC it was 1.8 nM; against TRKA, 1.3 nM.
`CC(Oc1ccc2[nH]nc(-c3nc4c([nH]3)CN(C3CCN(C)CC3)C4)c2c1)c1cc(F)cc(F)c1` (stereo not drawn) [Example 4, 5-(1-(3,5-difluorophenyl)ethoxy)-3-(5-(1-methylpiperidin-4-yl)-1,4,5,6-tetrahydropyrrolo[3,4-d]imidazol-2-yl)-1H-indazole]: the IC50 against TRKB turned out to be 2.4 nM; at TRKC it was 3.1 nM; against TRKA, 2 nM.
Consider `CC(Oc1ccc2[nH]nc(-c3nc4c([nH]3)CN(C(C)C3CCN(C)CC3)C4)c2c1)c1cc(F)cc(F)c1` (stereo not drawn) [Example 23, 5-(1-(3,5-Difluorophenyl)ethoxy)-3-(5-(1-(1-methylpiperidin-4-yl)ethyl)-1,4,5,6-tetrahydropyrrolo[3,4-d]imidazol-2-yl)-1H-indazole], for which the half-maximal inhibitory concentration (IC50) on TRKB came out at 1.5 nM; at TRKC, 1.1 nM; against TRKA it was 0.59 nM.
On the same counts, the results for `CC(Oc1ccc2[nH]nc(-c3nc4c([nH]3)CN(C3CCC(N(C)C)C3)C4)c2c1)c1cc(F)cc(F)c1` (stereo not drawn) [Example 46, 3-(2-(5-(1-(3,5-Difluorophenyl)ethoxy)-1H-indazol-3-yl)-4,6-dihydropyrrolo[3,4-d]imidazol-5(1H)-yl)-N,N-dimethyl cyclopentan-1-amine] are 1.4 nM, 2.9 nM and 10.6 nM.
With `CC(Oc1ccc2[nH]nc(-c3nc4c([nH]3)CN(C(=O)OC3CCCN(C)C3)C4)c2c1)c1cc(F)cc(F)c1` (stereo not drawn) [Example 33, 1-Methylpiperidin-3-yl 2-(5-(1-(3,5-difluorophenyl)ethoxy)-1H-indazol-3-yl)-4,6-dihydropyrrolo[3,4-d]imidazole-5(1H)-carboxylate], the IC50 against TRKB worked out at 4.1 nM; against TRKC, 1.2 nM; against TRKA, 0.46 nM.
On the same counts, the results for `CC(Oc1ccc2[nH]nc(-c3nc4c([nH]3)CN(C(=O)C3CCN(C)CC3)C4)c2c1)c1cc(F)cc(F)c1` (stereo not drawn) [Example 7, (2-(5-(1-(3,5-difluorophenyl)ethoxy)-1H-indazol-3-yl)-4,6-dihydropyrrolo[3,4-d]imidazol-5(1H)-yl)(1-methylpiperidin-4-yl)ketone] are 3.4 nM, 1.3 nM and 1.4 nM.
For `CS(=O)(=O)N1Cc2nc(-c3n[nH]c4ccc(Cc5cc(F)cc(F)c5)cc34)[nH]c2C1` [Example 3, 5-(3,5-difluorobenzyl)-3-(5-(methylsulfonyl)-1,4,5,6-tetrahydropyrrolo[3,4-d]imidazol-2-yl)-1H-indazole], the IC50 was 5.5 nM against TRKB, 11 nM against TRKC and 6.4 nM at TRKA.

(Values after patent publication US20240317760A1, “TRK KINASE INHIBITOR COMPOUND AND USE THEREOF” (HENAN MEDINNO PHARMACEUTICAL TECHNOLOGY CO., LTD., priority 2021, published 2024).)
